Source: patent US11241436B2, “Autophagy inducers for treatment of CNS conditions” (Northwestern University, priority 2017, dated 2022)
Read-outs that look alike come from different tables or passages of the source.

Experiments:
[1] = tested on: WT primary cortical neurons; assay: TUNEL assay of primary cortical neurons treated with conditioned media of APP-HEK293 cells; assay type: cell-based, mouse
Procedure: Nuclei were stained with DAPI. Scale bar, 100 μm. N=10 fields (each field containing 20-30 neurons).
TUNEL assays. APP-HEK293 cells were cultured in 6-well dishes for 24 h and then the media was replaced with neuronal culture media. After 48 h, conditioned media was collected and used to treat primary cortical neurons (12 DIV) cultured on poly-L-lysine coated slides for another 24 h. Apoptotic neurons were detected by the In Situ Cell Death Detection Kit, TMR red (Roche, cat. #12156792910) according to the manufacturer's instructions. Nuclei were stained using the mounting medium containing DAPI (Vectashield). Quantification of red TUNEL-positive neurons was done using the NIS Elements software.

[2] = tested on: HEK293 cells stably expressing APP; assay: Dot blot of secreted Aβ42 in conditioned media of APP-HEK293 cells; assay type: cell-based, human
Procedure: Cells were transfected with non-targeting control (NC) or ATG7 siRNA 24 h prior to ML246 treatment. Results are quantified from 4 independent experiments.
In addition to Becn2^F121A-mediated genetic activation of autophagy, it was decided to further study whether stimulating autophagy pharmacologically is also protective against neurodegenerative progression. A brain-penetrable autophagy-inducing small molecule ML246 (metarrestin) was recently identified, and analyzed its effects on the clearance of aggregate-prone proteins in vitro and in vivo. For in vitro analyses, the HEK293 cell line stably expressing APP (APP-HEK293) was utilized, in which the produced Aβ molecules are efficiently secreted, to study the effect of ML246 on amyloid metabolism. […] In addition, cultured WT primary cortical neurons treated with the conditioned media from ML246-treated APP-HEK293 cells underwent a lower level of apoptotic cell death than those treated with media from vehicle-treated APP-HEK293 cells (FIG. 18B).
Dot blot assay. […] Protein concentration was quantified using BCA Assay (Pierce). […] The membrane was stained with Ponceau S, and the dot blot signal on the membrane was detected by immunostaining with Aβ42 antibody (Invitrogen, 700254, 1:1000) and HRP-conjugated secondary antibody (Santa Cruz Biotechnology, sc2004, 1:2000). […]

mouse models of AD = conditions: cited from earlier work
[3] = mouse
5XFAD mice = assay: Open-field test of 5XFAD mice; assay type: in vivo, mouse; conditions: Rg2-treated vs vehicle-treated 5XFAD mice
[4] = tested on: HeLa cell lines expressing HTT

Compound	apoptotic cell death of neurons ([1]; conditioned media from ML246-treated APP-HEK293 cells vs vehicle-treated)	ML246-mediated reduction of apoptotic neuronal death ([1]; siRNA knockdown of ATG7 in APP-HEK293 cells)	level of secreted Aβ in the conditioned media ([2]; APP-HEK293 cells, 24 h)	ML246-mediated reduction of secreted Aβ42 ([2]; siRNA knockdown of ATG7)	amyloid burden and memory deficit (mouse models of AD)	percentage bound by plasma protein ([3]; 10 μg/ml)	percentage bound by plasma protein ([3]; 50 μg/ml) [%]	percentage bound by plasma protein ([3]; 100 μg/ml) [%]	locomotor activity (distance travelled) (5XFAD mice)	cell viability [4]
N=c1c2c(-c3ccccc3)c(-c3ccccc3)n(Cc3ccccc3)c2ncn1[C@H]1CC[C@H](O)CC1 [ML246]	lower level	reversed	significantly reduced	reversed						
CC(C)=CCC[C@](C)(O)[C@H]1CC[C@]2(C)[C@@H]1[C@H](O)C[C@@H]1[C@@]3(C)CC[C@H](O)C(C)(C)[C@@H]3[C@@H](O[C@@H]3O[C@H](CO)[C@@H](O)[C@H](O)[C@H]3O[C@@H]3O[C@@H](C)[C@H](O)[C@@H](O)[C@H]3O)C[C@]12C [Rg2, ginsenoside Rg2]					reduces amyloid burden and memory deficit	approximately 42%	~24	~15	no rescue	grew as well as the control cells
